Measured values: patent publication US20040005537A1, “Method of identifying toxic agents using differential gene expression” (priority 2000, published 2004)

Assays:
[1] = cited from earlier work
rat heart tissue = assay: GENECALLING differential gene expression analysis after dosing of serotonin modulating agents; assay type: in vivo, Sprague Dawley rats
In short: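 GENECALLING profiling of cDNA from total RNA, keeping gene fragments modulated beyond ±1.5-fold. Tissue collected 24 h after final dosing of serotonin modulating agents; control rats received sterile water or canola oil.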

Structure (SMILES): CCN[C@@H](C)Cc1cccc(C(F)(F)F)c1 [dexfenfluramine]
- classification as cardiotoxic or noncardiotoxic serotonin modulating agent ([1]; grouping used to generate the distinguishing gene profiles): cardiotoxic
- side effect reported in a subset of patients ([1]; patients to which they are administered): valvular heart disease
- Effects on Transcription Level: Novel gene fragment, 524 bp, 86% SI to mouse F-box protein FBX6b [AF176526] (rat heart tissue; CARDIOTOX 1): +1.5 fold
- Effects on Transcription Level: Novel gene fragment, 306 bp, 91% SI to mouse low density lipoprotein receptor related protein 4 [AB013874] (rat heart tissue; CARDIOTOX 2): −1.8 fold
- Effects on Transcription Level: Novel gene fragment, 540 bp, 97% SI to mouse skeletal muscle alpha-actin [X03766] (rat heart tissue; CARDIOTOX 3): +2.3 fold
- Effects on Transcription Level: Novel gene fragment, 80 bp (rat heart tissue; CARDIOTOX 4): −1.6 fold
- Effects on Transcription Level: Novel gene fragment, 957 bp, 99% SI to kidney injury associated moleculer HW036 [V80591] (rat heart tissue; CARDIOTOX 5): −1.6 fold
- Effects on Transcription Level: Novel gene fragment, 282 bp, 85% SI to human KIAA1515 protein [AB040948] (rat heart tissue; CARDIOTOX 6): −1.7 fold
- Effects on Transcription Level: Novel gene fragment, 405 bp, 88% SI to human 2-oxoglutarate dehydrogenase [D10523] (rat heart tissue; CARDIOTOX 7): +1.5 fold
- Effects on Transcription Level: UCP2 (rat heart tissue; CARDIOTOX 8, GenBank AB010743): −1.6 fold
- Effects on Transcription Level: Plasma membrane Ca2 + ATPase-isoform 1 (rat heart tissue; CARDIOTOX 9, GenBank J03753): −1.6 fold
- Effects on Transcription Level: Novel gene fragment, 242 bp, 97% SI to mouse HSP86 heat-shock protein [X16857] (rat heart tissue; CARDIOTOX 10): +1.4 fold
- Effects on Transcription Level: Novel gene fragment, 280 bp, 65% SI to human TRF1-interacting, ankyrin-related ADP-ribose polymerase [AF082556] (rat heart tissue; CARDIOTOX 11): +1.4 fold
- Effects on Transcription Level: Novel gene fragment, 348 bp, 88% SI to mouse Sec61 protein complex gamma subunit [U11027] (rat heart tissue; CARDIOTOX 12): +1.3 fold
- Effects on Transcription Level: Novel gene fragment 553 bp, 93% SI to mouse Sid329 [AB024984] (rat heart tissue; CARDIOTOX 13): +1.4 fold
- Effects on Transcription Level: Kruppel-like transcription factor (rat heart tissue; CARDIOTOX 14, GenBank AB020759): +1.3 fold
- Effects on Transcription Level: Ribosomal protein L3 (rat heart tissue; CARDIOTOX 15, GenBank X62166): +1.4 fold
- Effects on Transcription Level: Glucose-regulated protein (GRP) 75 (rat heart tissue; CARDIOTOX 16, GenBank S78556): +1.4 fold
- Effects on Transcription Level: Immunoglobulin heavy chain binding protein (BiP) (rat heart tissue; CARDIOTOX 17, GenBank M14050): +1.4 fold
- Effects on Transcription Level: Membrane-spannining proteoglycan NG2 (rat heart tissue; CARDIOTOX 18, GenBank X56541): −1.4 fold
- Effects on Transcription Level: Novel gene fragment, 1294 bp, 96% SI to mouse Sui 1 (elF) homolog [AF129888] (rat heart tissue; CARDIOTOX 19): +1.6 fold
- Effects on Transcription Level: Novel gene fragment, 723 bp, 85% SI to human translation initiation factor elF3 p40 subunit [U54559] (rat heart tissue; CARDIOTOX 20): +1.6 fold
- Effects on Transcription Level: Novel gene fragment, 1324 bp, 76% SI to human flavoprotein subunit of complex II [D30648] (rat heart tissue; CARDIOTOX 21): +1.5 fold
- Effects on Transcription Level: Novel gene fragment, 852 bp, 81% SI to human vacuolar proton-ATPase subunit M9.2 [Y15286] (rat heart tissue; CARDIOTOX 22): +1.5 fold
- Effects on Transcription Level: Novel gene fragment, 178 bp, 91% SI to mouse myosin light chain-2 isoform MLC-2a [S70785] (rat heart tissue; CARDIOTOX 23): +1.6 fold
- Effects on Transcription Level: Novel gene fragment, 167 bp, 90% SI to mouse Rab20 [X80332] (rat heart tissue; CARDIOTOX 24): +1.7 fold
- Effects on Transcription Level: Novel gene fragment, 1070 bp, 80% SI to human muscle-specific protein [AF249873] (rat heart tissue; CARDIOTOX 25): +1.5 fold
- Effects on Transcription Level: Novel gene fragment, 1143 bp, 82% SI to human sarcoma amplified sequence (SAS) [U01160] (rat heart tissue; CARDIOTOX 26): +1.7 fold
- Effects on Transcription Level: Novel gene fragment, 74 bp,75% SI to human secreted protein [X30160] (from patent database)/[X97578] (from patent database)/potential cytokine) (rat heart tissue; CARDIOTOX 27): +1.5 fold
- Effects on Transcription Level: Novel gene fragment, 408 bp, 90% SI to human CGI-07 protein [AF132941] (rat heart tissue; CARDIOTOX 28): +1.6 fold
- Effects on Transcription Level: Novel gene fragment, 618 bp, 95% SI to rat progression related cDNA, ZNPE-120 3′ end partial sequence [patent database X90805] (rat heart tissue; CARDIOTOX 29): +1.5 fold
- Effects on Transcription Level: Novel gene fragment, 717 bp (rat heart tissue; CARDIOTOX 30): +1.5 fold
- Effects on Transcription Level: Novel gene fragment, 546 bp (rat heart tissue; CARDIOTOX 31): +1.8 fold
- Effects on Transcription Level: Novel gene fragment, 920 bp, 91% SI to human HSPC061 [AF161546] (rat heart tissue; CARDIOTOX 32): +1.5 fold
- Effects on Transcription Level: Novel gene fragment, 203 bp, 92% SI to rabbit sarcoplasmic reticulum glycoprotein [J04480] (rat heart tissue; CARDIOTOX 33): −1.7 fold
- Effects on Transcription Level: Novel gene fragment, 178 bp, 68% SI to mouse IgG receptor (beta-Fc-gamma-RII)[M63159] (rat heart tissue; CARDIOTOX 34): +1.6 fold
- Effects on Transcription Level: Ribosomal protein L6 (rat heart tissue; CARDIOTOX 35, GenBank X87107): +1.6 fold
- Effects on Transcription Level: CAP2 protein (adenylyl cyclase-associated protein 2) (rat heart tissue; CARDIOTOX 36, GenBank U31935): +2.0 fold
- Effects on Transcription Level: Alpha-platelet-derived growth factor receptor (rat heart tissue; CARDIOTOX 37, GenBank M63837): +1.6 fold
- Effects on Transcription Level: Rab GD1 alpha protein (rat heart tissue; CARDIOTOX 38, GenBank X74402): −1.6 fold
- Effects on Transcription Level: PKC-zeta-interacting protein (rat heart tissue; CARDIOTOX 39, GenBank Y08355): +1.6 fold
- Effects on Transcription Level: ERK or MAP kinase (rat heart tissue; CARDIOTOX 40, GenBank X65198): +1.5 fold
- Effects on Transcription Level: Peroxisomal multifunctional enzyme type II (rat heart tissue; CARDIOTOX 41, GenBank U37486): +1.5 fold
- Effects on Transcription Level: HBP23 (heme-binding protein 23 kDa) (rat heart tissue; CARDIOTOX 42, GenBank D30035): +1.7 fold
- Effects on Transcription Level: Caveolae-associated protein (rat heart tissue; CARDIOTOX 43, GenBank U90725): +3.0 fold
- Effects on Transcription Level: Prenylated rab acceptor 1 (PRA1) (rat heart tissue; CARDIOTOX 44, GenBank AF025506): +1.5 fold
- Effects on Transcription Level: Novel gene fragment, 337 bp, 88% SI to rabbit cardiac ryanodine receptor (RyR-2)[U50465] (rat heart tissue; CARDIOTOX 45): −1.7 fold
- Effects on Transcription Level: Novel gene fragment, 81 bp, 85% SI to human titin [X90568] (rat heart tissue; CARDIOTOX 46): −2.2 fold
- Effects on Transcription Level: Novel gene fragment, 428 bp, 86% SI to human titin [X90568] (rat heart tissue; CARDIOTOX 47): −2.0 fold
- Effects on Transcription Level: Novel gene fragment, 374 bp, 88% SI to human titin [X90568] (rat heart tissue; CARDIOTOX 48): −2.3 fold
- Effects on Transcription Level: Novel gene fragment, 428 bp, 85% SI to human titin [90568] (rat heart tissue; CARDIOTOX 49): −2.2 fold
- Effects on Transcription Level: Novel gene fragment, 1216 bp, 93% SI to mouse mircotubule-associated protein (MAP) 1B protein [AF115776] (rat heart tissue; CARDIOTOX 50): −1.9 fold
- Effects on Transcription Level: Novel gene fragment, 1115 bp, 83% SI to human KIAA0549 protein [AB011121] (rat heart tissue; CARDIOTOX 51): −2.0 fold
- Effects on Transcription Level: Novel gene fragment, 153 bp (rat heart tissue; CARDIOTOX 52): −1.7 fold
- Effects on Transcription Level: Novel gene fragment, 89 bp, 93% SI to human putative glialblastoma cell differentiation-related protein (GBDR1) [AF068195] (rat heart tissue; CARDIOTOX 53): −1.6 fold
- Effects on Transcription Level: Rho-associated kinase beta (rat heart tissue; CARDIOTOX 54, GenBank U61266): −1.9 fold
- Effects on Transcription Level: Adenylate kinase 3 (rat heart tissue; CARDIOTOX 55, GenBank D13062): +1.5 fold
- Effects on Transcription Level: Amyloid beta-peptide binding protein (rat heart tissue; CARDIOTOX 56, GenBank AF049878): +1.5 fold
- Effects on Transcription Level: Mitochondrial adenine nuleotide translocator (rat heart tissue; CARDIOTOX 57, GenBank D12771): +1.5 fold
- Effects on Transcription Level: Novel gene fragment, 710 bp, 94% SI to mouse chromatin structural protein homolog Supt5 hp (Supt5 h)[U88539] (rat heart tissue; CARDIOTOX 58): +3.8 fold
- Effects on Transcription Level: Novel gene fragment, 186 bp, 66% SI to human N-acetylglucosaminyltransferase 1 (GlcNAc-TI)[M55621] (rat heart tissue; CARDIOTOX 60): −1.7 fold
- Effects on Transcription Level: Novel gene fragment, 238 bp, 95% SI to mouse MAP kinase-activated protein kinase 2 [X76850] (rat heart tissue; CARDIOTOX 61): −2.1 fold
- Effects on Transcription Level: Novel gene fragment, 173 bp, 70% SI to G protein-coupled receptor kinase GRK4 [X97568] (rat heart tissue; CARDIOTOX 62): −6.1 fold
- Effects on Transcription Level: Novel gene fragment, 133 bp, 77% SI to human apoptosis related protein hSARP3 [patent database: V19114] (rat heart tissue; CARDIOTOX 63): −3.4 fold
- Effects on Transcription Level: Novel gene fragment, 477 bp, 98% SI to peroxisomal phytanoyl-CoA hydroxylase (PHYH) [AF121345] (rat heart tissue; CARDIOTOX 64): +5.0 fold
- Effects on Transcription Level: Novel gene fragment, 413 bp, 95% SI to mouse dihydrolipoamide dehydrogenase (Dld) [U73445] (rat heart tissue; CARDIOTOX 65): +1.9 fold
- Effects on Transcription Level: Novel gene fragment, 726 bp, 76% SI to human succinate dehydrogenase flavoprotein subunit (SDH) [L21936] (rat heart tissue; CARDIOTOX 66): −4.1 fold
- Effects on Transcription Level: Novel gene fragment, 440 bp, 92% SI to mouse cytochrome c oxidase Vllc [X52940] (rat heart tissue; CARDIOTOX 67): +3.6 fold
- Effects on Transcription Level: Novel gene fragment, 276 bp, 80% SI to human titin [X90568] (rat heart tissue; CARDIOTOX 68): −11.9 fold
- Effects on Transcription Level: Novel gene fragment, 149 bp, 70% SI to human titin [X90568] (rat heart tissue; CARDIOTOX 69): −5.5 fold
